Experimental findings from PubChem BioAssay (NCI) are described below.

Several values for one entry are separate records, joined by “and”; a condition that tells them apart may be missing. Equal entries are not always repeated.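 1) Cells in 96-well plates. 2) Compound, 48 h, 5 concentrations. 3) Linear interpolation between surrounding doses. 4) Unreached endpoint = highest concentration. GI50: concentration for 50% inhibition of growth. TGI denotes the concentration required for complete inhibition of growth.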 Where only a bound is given, the exact number is not on record here.

Among the test systems are HOP-92 NSCLC; LOX IMVI melanoma; MOLT-4 leukemia; NCI-H23 lung; NCI-H460 lung; NCI-H522 lung; OVCAR-3 ovarian; SK-MEL-5 melanoma; SK-OV-3 ovarian; U251 CNS.
Holding throughout (assay): NCI anticancer screen, dose series, 48 h

For `CC(C)(C)OC(=O)N1C[C@H](CC(=O)OCc2ccccc2)C[C@H]1C(=O)OCC(Cl)(Cl)Cl`, the TGI was 21.5 µM in the assay with HOP-92 NSCLC; above 50 µM in the assay on LOX IMVI melanoma; 3.36 µM with MOLT-4 leukemia; above 50 µM in the assay on NCI-H23 lung; above 50 µM in the assay with NCI-H460 lung; 13.6 µM in the assay with NCI-H522 lung. For the same molecule, the TGI is 32.9 µM in the assay on OVCAR-3 ovarian, 8.13 µM in the assay with SK-MEL-5 melanoma, above 50 µM with SK-OV-3 ovarian and 16.1 µM in the assay with U251 CNS.
As to `O=CC(O)C(O)C(O)COc1cc(CO)cc2c1C(=O)c1ccccc1C2=O` (stereo not given), the TGI in the assay on HOP-92 NSCLC, in the assay on LOX IMVI melanoma, in the assay on MOLT-4 leukemia, in the assay with NCI-H23 lung, with NCI-H460 lung and in the assay with NCI-H522 lung was above 100 µM in each case. Also, the TGI with OVCAR-3 ovarian, in the assay with SK-MEL-5 melanoma, in the assay with SK-OV-3 ovarian and in the assay on U251 CNS was above 100 µM in each case.
Consider `COc1ccc(Cc2nc3cc(Cl)ccc3o2)cc1`, for which the TGI in the assay with HOP-92 NSCLC, in the assay with LOX IMVI melanoma, in the assay with MOLT-4 leukemia, with NCI-H23 lung, with NCI-H460 lung and in the assay with NCI-H522 lung was above 100 µM in each case. The TGI with OVCAR-3 ovarian was 94.1 µM; in the assay with SK-MEL-5 melanoma, 31.1 µM; with SK-OV-3 ovarian it was above 100 µM; in the assay on U251 CNS, above 100 µM.
For the molecule `CC(C)(C)c1ccc(O)c(Br)c1`, the TGI in the assay with LOX IMVI melanoma, with MOLT-4 leukemia, with NCI-H23 lung, in the assay on NCI-H460 lung, in the assay with NCI-H522 lung and with OVCAR-3 ovarian was above 100 µM throughout. Also, the TGI in the assay on SK-MEL-5 melanoma, with SK-OV-3 ovarian and in the assay on U251 CNS was above 100 µM in each case.
For the molecule `NCCCCN`, the TGI in the assay with HOP-92 NSCLC, in the assay on LOX IMVI melanoma, in the assay on MOLT-4 leukemia, in the assay on NCI-H23 lung, in the assay with NCI-H460 lung and in the assay on NCI-H522 lung was above 100 µM each time. Further, the TGI in the assay on OVCAR-3 ovarian, with SK-MEL-5 melanoma, with SK-OV-3 ovarian and with U251 CNS was above 100 µM throughout.
Regarding `C/C(=C\CNc1ncnc2nc(Cl)[nH]c12)CO`, the TGI with HOP-92 NSCLC, with LOX IMVI melanoma, with MOLT-4 leukemia, in the assay on NCI-H23 lung, in the assay on NCI-H460 lung and in the assay with NCI-H522 lung was above 100 µM in each case. Further, the TGI with OVCAR-3 ovarian, in the assay on SK-MEL-5 melanoma and in the assay with SK-OV-3 ovarian was above 100 µM each time.
With `C=C1CCCC(C)(C)[C@@H]1CC/C(C)=C/Cn1c2cccc(=O)c-2nc2ccccc21`, the GI50 in the assay with HOP-92 NSCLC is 22.7 µM; in the assay on MOLT-4 leukemia, 5.55 µM; in the assay with NCI-H23 lung, 5.39 µM; in the assay on NCI-H460 lung, 14 µM; in the assay on NCI-H522 lung it was 6.35 µM; with U251 CNS, 10.7 µM. Besides, the TGI with LOX IMVI melanoma is 2.45 µM; in the assay on MOLT-4 leukemia, 70.7 µM and 9.78 µM; in the assay with NCI-H522 lung, above 100 µM; with OVCAR-3 ovarian it was 18.9 µM and 12.5 µM; with SK-MEL-5 melanoma, 13.8 µM; in the assay on SK-OV-3 ovarian it was 10.7 µM.
For `C[C@H](Nc1ccc(C#N)n(C)c1=O)c1cc2cc(Cl)ccc2[nH]c1=O`, the GI50 is 2.8 µM in the assay on HOP-92 NSCLC; 33.1 µM in the assay with LOX IMVI melanoma; 18.6 µM in the assay on MOLT-4 leukemia; 35.4 µM with NCI-H23 lung; 32.8 µM in the assay on NCI-H460 lung; 29.6 µM in the assay on NCI-H522 lung. The GI50 was 24.1 µM in the assay with OVCAR-3 ovarian, 15.6 µM with SK-MEL-5 melanoma, 23.9 µM in the assay on SK-OV-3 ovarian and 30 µM with U251 CNS. Besides, the TGI in the assay with HOP-92 NSCLC was 37.3 µM; with LOX IMVI melanoma it was above 100 µM; with MOLT-4 leukemia it was 64.1 µM; in the assay with NCI-H23 lung, above 100 µM; in the assay on NCI-H460 lung, above 100 µM; in the assay with NCI-H522 lung, above 100 µM. Further, the TGI with OVCAR-3 ovarian is above 100 µM; in the assay with SK-MEL-5 melanoma it was 29.1 µM; in the assay on SK-OV-3 ovarian it was 75.1 µM; in the assay on U251 CNS it was above 100 µM.
Consider `NC(N)=NS(=O)(=O)c1ccc(Nc2c3ccccc3nc3c(C(=O)N4CCN(CCO)CC4)ccc(Cl)c23)cc1`, for which the TGI with HOP-92 NSCLC, in the assay with MOLT-4 leukemia, with NCI-H23 lung, with NCI-H460 lung, with OVCAR-3 ovarian and with SK-MEL-5 melanoma was above 100 µM in each case. Further, the TGI in the assay on SK-OV-3 ovarian and with U251 CNS was above 100 µM in each case.
For `Clc1ccc(NCc2nnc(COc3ccc(OCc4nnc(CNc5ccc(Cl)cc5)o4)c(Cl)c3)o2)cc1`, the TGI in the assay with HOP-92 NSCLC is 83.5 µM; with LOX IMVI melanoma it was above 100 µM; with NCI-H23 lung, above 100 µM; in the assay on NCI-H460 lung, above 100 µM; with NCI-H522 lung, 46.5 µM; in the assay on OVCAR-3 ovarian it was 93.5 µM. In addition, the results for the TGI with SK-MEL-5 melanoma and with U251 CNS were 53.6 µM and above 100 µM, respectively.
As for `O=P(O)(O)OP(=O)(O)O`, the TGI in the assay on HOP-92 NSCLC, with LOX IMVI melanoma, in the assay on MOLT-4 leukemia, in the assay with NCI-H23 lung, in the assay with NCI-H460 lung and in the assay on NCI-H522 lung was above 100 µM in each case. The TGI in the assay with OVCAR-3 ovarian, with SK-MEL-5 melanoma, in the assay with SK-OV-3 ovarian and in the assay on U251 CNS was above 100 µM in each case.
With `CCN(CC)/[N+]([O-])=N/OC`, the TGI in the assay on HOP-92 NSCLC, with LOX IMVI melanoma, in the assay on MOLT-4 leukemia, in the assay on NCI-H23 lung, in the assay on NCI-H460 lung and in the assay with NCI-H522 lung was above 100 µM in each case. In addition, the TGI in the assay on OVCAR-3 ovarian, with SK-MEL-5 melanoma, with SK-OV-3 ovarian and with U251 CNS was above 100 µM each time.
Regarding `CC(Br)C(=O)c1ccc2cc(Br)c3ccccc3c2c1` (stereo not given), the TGI was found to be 30.8 µM in the assay on HOP-92 NSCLC; 20.4 µM in the assay with LOX IMVI melanoma; 29.7 µM in the assay on NCI-H23 lung; 30.9 µM in the assay with NCI-H460 lung; 16.7 µM with NCI-H522 lung; 26.6 µM with OVCAR-3 ovarian. Besides, the TGI with SK-MEL-5 melanoma was 27.3 µM; in the assay with SK-OV-3 ovarian, 30.8 µM; with U251 CNS, 26.5 µM.
